# Patent publication US9085536B2, “Aconitine compounds, compositions, uses, and preparation thereof” (priority 2011, dated 2015)
# Entries after “also recorded” stand apart in the source; their conditions may differ. Like-named read-outs stand apart in the source and are kept apart here.
# Assays:
# [1] = molecular target: T1, rNaV1.4 expressed in CHO cells (Rattus norvegicus, UniProt P15390); assay: Activation: current-voltage (I-V) and conductance-voltage (G-V) relationship, whole-cell recording; assay type: cell-based
# T1 construct: expressed in transfected cells; host or cells: CHO cells
# Method: To determine if the shift in I-V relationship is affected by the aromaticity of the aconitine C14 benzoate, current-voltage relationships were recorded for control cells expressing NaV, those that had been modified by aconitine, and those that had been modified by aconitine C14-cyclohexanoate 4.8d. For the modified channels, solutions of 50 μM concentration of the respective toxins were perfused onto the cells, and then depolarizing pulses were applied until a steady state current was observed, generally requiring about 1000 pulses. At that time, current-voltage relationships were again recorded. […] A shift towards hyperpolarizing potentials is clearly observed in both cases. Currents recorded at −50 mV are highlighted for all three experiments.
# To determine the effect on current-voltage (I-V) relationship of the aconitine derivatives, whole cell currents were recorded in cells expressing NaV in the presence of aconitine derivatives. Control I-V plots were recorded with unmodified NaV1.4, to which were compared NaV channels modified by aconitine as well as by selected analogs. For the modified channels, solutions of the respective toxins were perfused onto the cells, and then depolarizing pulses were applied until a steady state current was observed, generally requiring about 1000 pulses. A sequence of test pulses was then recorded to determine the current-voltage relationships (using a step protocol in which CHO cells were depolarized for 10 ms from a holding potential of −100 mV to a range of potentials from −95 mV to +30 mV in 5 or 10 mV increments; peak currents were normalized to the maximum peak current and plotted against voltage).
# [2] = molecular target: T1, rNaV1.4 expressed in CHO cells; assay type: cell-based; settings: for reversibility of binding upon wash-off: wash-off experiments, Table 3 concentrations
# Method: […] […] It is noteworthy that little or no increase in current was observed during wash off when no depolarizing pulses were applied and peak current was measured as a function of time.
# Since the molecules bind to the open-state of the Nav channel their release also requires activation pulses. In typical experiments, buffered external solution was perfused and a pulse train sequence was applied to the patch-clamp until the current reached a steady-state for at least two minutes.
# [3] = molecular target: T1, rNaV1.4 expressed in CHO cells; assay: Steady-state inactivation, whole-cell recording, Boltzmann fit; assay type: cell-based
# Method: . The channels were modified by perfusing the cells with buffered solution containing aconitine at the given concentrations and then simple pulses (10 ms pulses to 0 mV from −100 mV holding potential) were recorded until the currents leveled to a steady value (typically ˜1000 pulses). Steady-state fast inactivation of the current was then determined by delivering 500 ms conditioning pulses to potentials ranging from −130 to −11 mV (7 my increments) immediately followed by a 10 ms test pulse to 0 mV to test the available current. The peak current measured during the test pulse was normalized to the maximum peak current recorded in the conditioning pulses. […] Midpoint voltage V0.5 represents the membrane potential at which half maximum current is observed; slope factor at midpoint k quantifies the rate at which the inactivation response occurs.
# [4] = molecular target: T1, rNaV1.4 expressed in CHO cells; assay: Na+ current block at steady state, whole-cell patch clamp with pulse trains; assay type: cell-based; settings: for depolarizing pulses required to reach steady-state block: 10 Hz pulse trains; for Current measured at 20 μM (%) / Current measured at 75 μM (%): before wash-off
# Method: Binding of aconitine to NaV is use-dependent and is known to result both in a left shift of the current-voltage (I-V) relationship and in partial block of the channel. […] To determine whether aconitine binding is reversible, two experiments were designed. First, as block by aconitine is known to be use dependent, peak current was measured as a function of pulse number in the presence of two different concentrations of aconitine. Since aconitine binds preferentially to the open state of the sodium channel, a pulse train was applied sequentially with a control pulse used to record peak current. The pulse train consisted of a series of 50 depolarizing pulses (from −100 mV holding potential to 0 mV, 10 ms duration) applied at 10 Hz frequency, while the control pulse consisted of a single depolarizing pulse (from −100 mV holding potential to 0 mV test potential, 10 ms duration).
# Pulse trains of 10 Hz frequency and control pulses were applied sequentially to cells expressing rNaV1.4, and currents elicited from the control pulse were recorded after each pulse train. This process was repeated until the current elicited from the control pulse had reached a steady state and was no longer decreasing with each additional pulse train. If block were irreversible, this steady state current would be expected to be independent of toxin concentration—the toxin would not be able to dissociate from its receptor, and the number of toxin molecules is much greater than the number of sodium channels (assuming a 100 μL chamber containing 1000 CHO cells, each expressing 10,000 sodium channels, at 50 μM concentration toxin molecules outnumber receptors by a factor of 3×10^8:1), therefore, all receptors would eventually reach the bound state.
# Block by aconitine is known to be use-dependent, therefore the use-dependence of the C14 derivatives of aconitine was evaluated. Peak Na current was measured as a function of pulse number in the presence of different concentrations of the molecules. […] Since aconitine binds preferentially to the open state of the sodium channel, a pulse train was applied sequentially with a control pulse used to record peak current. The pulse train consisted of a series of 50 depolarizing pulses (from −100 mV holding potential to 0 mV, 10 ms duration) applied at 10 Hz frequency, while the control pulse consisted of a single depolarizing pulse (from −100 mV holding potential to 0 mV test potential, 10 ms duration).
# Pulse trains of 10 Hz frequency and control pulses were applied sequentially to CHO cells expressing rNaV1.4, and currents elicited from the control pulse were recorded after each pulse train. This process was repeated until the current elicited from the control pulse had reached a steady state and was no longer decreasing with each additional pulse train. If block were irreversible, this steady state current would be expected to be independent of toxin concentration—the toxin would not be able to dissociate from its receptor, and the number of toxin molecules is much greater than the number of sodium channels, therefore, all receptors would eventually reach the bound state.
# The ability of the synthesized aconitine derivatives to block NaV channels was evaluated with patch-clamp experiments in the whole-cell configuration on CHO cells expressing rNaV1.4 heterologously. A buffer solution containing the toxin was applied to the cells, whole-cell Na^+ currents were recorded until the decreasing current reached a steady-state (300 to 3000 pulses, depending on the molecules and concentrations). The peak Na^+ currents were measured with a depolarizing test pulse (from −100 mV holding potential to 0 mV test potential, 10 ms duration).
# [5] = molecular target: NaV1.2 (Homo sapiens, UniProt Q99250); settings: cited from earlier work
# [6] = molecular target: NaV1.8 (Homo sapiens, UniProt Q9Y5Y9); settings: cited from earlier work
# T1 sequence (P15390 whole entry): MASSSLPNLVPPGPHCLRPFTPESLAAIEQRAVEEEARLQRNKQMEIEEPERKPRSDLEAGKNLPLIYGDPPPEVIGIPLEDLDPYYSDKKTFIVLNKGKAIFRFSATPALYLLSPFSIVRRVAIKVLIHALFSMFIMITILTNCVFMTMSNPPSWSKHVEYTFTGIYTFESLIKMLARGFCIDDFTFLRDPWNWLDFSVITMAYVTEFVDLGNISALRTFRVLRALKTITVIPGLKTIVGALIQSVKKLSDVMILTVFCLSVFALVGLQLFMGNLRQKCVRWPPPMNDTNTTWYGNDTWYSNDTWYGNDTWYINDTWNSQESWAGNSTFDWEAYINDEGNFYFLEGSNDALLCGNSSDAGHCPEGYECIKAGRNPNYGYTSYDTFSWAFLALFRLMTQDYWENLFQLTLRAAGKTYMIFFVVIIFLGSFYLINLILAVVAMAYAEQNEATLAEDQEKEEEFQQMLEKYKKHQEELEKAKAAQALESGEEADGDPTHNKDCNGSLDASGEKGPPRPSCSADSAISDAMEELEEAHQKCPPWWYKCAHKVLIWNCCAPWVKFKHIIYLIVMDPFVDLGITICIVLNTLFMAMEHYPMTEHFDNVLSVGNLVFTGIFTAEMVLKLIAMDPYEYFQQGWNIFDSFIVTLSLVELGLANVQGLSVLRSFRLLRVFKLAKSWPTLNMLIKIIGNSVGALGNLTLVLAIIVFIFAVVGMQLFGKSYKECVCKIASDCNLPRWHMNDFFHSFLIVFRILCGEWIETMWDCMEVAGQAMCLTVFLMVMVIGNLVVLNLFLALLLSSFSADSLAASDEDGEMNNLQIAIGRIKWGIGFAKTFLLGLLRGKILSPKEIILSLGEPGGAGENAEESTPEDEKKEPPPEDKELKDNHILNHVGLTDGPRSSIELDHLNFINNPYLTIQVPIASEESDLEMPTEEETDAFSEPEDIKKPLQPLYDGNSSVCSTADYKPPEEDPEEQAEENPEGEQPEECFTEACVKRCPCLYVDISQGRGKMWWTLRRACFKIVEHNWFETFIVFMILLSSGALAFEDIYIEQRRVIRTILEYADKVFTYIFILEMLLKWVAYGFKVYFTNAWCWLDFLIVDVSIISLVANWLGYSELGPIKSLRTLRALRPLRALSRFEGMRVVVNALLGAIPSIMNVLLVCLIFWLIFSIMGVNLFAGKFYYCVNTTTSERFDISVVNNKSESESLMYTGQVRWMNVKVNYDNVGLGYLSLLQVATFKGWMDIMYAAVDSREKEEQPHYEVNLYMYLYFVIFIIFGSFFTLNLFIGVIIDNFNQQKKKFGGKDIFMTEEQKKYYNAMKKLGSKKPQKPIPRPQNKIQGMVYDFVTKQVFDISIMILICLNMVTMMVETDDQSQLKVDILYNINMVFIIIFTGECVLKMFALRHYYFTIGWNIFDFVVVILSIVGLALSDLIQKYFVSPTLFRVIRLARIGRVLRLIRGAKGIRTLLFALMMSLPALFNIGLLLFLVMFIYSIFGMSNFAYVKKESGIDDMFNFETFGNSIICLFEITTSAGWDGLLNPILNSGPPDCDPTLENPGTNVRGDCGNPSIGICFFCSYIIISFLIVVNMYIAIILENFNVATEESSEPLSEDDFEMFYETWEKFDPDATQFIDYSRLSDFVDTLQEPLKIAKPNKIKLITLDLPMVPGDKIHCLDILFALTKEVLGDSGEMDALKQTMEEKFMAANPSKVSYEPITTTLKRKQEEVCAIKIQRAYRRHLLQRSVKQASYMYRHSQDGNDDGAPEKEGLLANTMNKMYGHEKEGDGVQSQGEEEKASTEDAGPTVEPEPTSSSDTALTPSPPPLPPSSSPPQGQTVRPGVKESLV
# NaV1.2, sequence (Q99250 whole entry, looked up): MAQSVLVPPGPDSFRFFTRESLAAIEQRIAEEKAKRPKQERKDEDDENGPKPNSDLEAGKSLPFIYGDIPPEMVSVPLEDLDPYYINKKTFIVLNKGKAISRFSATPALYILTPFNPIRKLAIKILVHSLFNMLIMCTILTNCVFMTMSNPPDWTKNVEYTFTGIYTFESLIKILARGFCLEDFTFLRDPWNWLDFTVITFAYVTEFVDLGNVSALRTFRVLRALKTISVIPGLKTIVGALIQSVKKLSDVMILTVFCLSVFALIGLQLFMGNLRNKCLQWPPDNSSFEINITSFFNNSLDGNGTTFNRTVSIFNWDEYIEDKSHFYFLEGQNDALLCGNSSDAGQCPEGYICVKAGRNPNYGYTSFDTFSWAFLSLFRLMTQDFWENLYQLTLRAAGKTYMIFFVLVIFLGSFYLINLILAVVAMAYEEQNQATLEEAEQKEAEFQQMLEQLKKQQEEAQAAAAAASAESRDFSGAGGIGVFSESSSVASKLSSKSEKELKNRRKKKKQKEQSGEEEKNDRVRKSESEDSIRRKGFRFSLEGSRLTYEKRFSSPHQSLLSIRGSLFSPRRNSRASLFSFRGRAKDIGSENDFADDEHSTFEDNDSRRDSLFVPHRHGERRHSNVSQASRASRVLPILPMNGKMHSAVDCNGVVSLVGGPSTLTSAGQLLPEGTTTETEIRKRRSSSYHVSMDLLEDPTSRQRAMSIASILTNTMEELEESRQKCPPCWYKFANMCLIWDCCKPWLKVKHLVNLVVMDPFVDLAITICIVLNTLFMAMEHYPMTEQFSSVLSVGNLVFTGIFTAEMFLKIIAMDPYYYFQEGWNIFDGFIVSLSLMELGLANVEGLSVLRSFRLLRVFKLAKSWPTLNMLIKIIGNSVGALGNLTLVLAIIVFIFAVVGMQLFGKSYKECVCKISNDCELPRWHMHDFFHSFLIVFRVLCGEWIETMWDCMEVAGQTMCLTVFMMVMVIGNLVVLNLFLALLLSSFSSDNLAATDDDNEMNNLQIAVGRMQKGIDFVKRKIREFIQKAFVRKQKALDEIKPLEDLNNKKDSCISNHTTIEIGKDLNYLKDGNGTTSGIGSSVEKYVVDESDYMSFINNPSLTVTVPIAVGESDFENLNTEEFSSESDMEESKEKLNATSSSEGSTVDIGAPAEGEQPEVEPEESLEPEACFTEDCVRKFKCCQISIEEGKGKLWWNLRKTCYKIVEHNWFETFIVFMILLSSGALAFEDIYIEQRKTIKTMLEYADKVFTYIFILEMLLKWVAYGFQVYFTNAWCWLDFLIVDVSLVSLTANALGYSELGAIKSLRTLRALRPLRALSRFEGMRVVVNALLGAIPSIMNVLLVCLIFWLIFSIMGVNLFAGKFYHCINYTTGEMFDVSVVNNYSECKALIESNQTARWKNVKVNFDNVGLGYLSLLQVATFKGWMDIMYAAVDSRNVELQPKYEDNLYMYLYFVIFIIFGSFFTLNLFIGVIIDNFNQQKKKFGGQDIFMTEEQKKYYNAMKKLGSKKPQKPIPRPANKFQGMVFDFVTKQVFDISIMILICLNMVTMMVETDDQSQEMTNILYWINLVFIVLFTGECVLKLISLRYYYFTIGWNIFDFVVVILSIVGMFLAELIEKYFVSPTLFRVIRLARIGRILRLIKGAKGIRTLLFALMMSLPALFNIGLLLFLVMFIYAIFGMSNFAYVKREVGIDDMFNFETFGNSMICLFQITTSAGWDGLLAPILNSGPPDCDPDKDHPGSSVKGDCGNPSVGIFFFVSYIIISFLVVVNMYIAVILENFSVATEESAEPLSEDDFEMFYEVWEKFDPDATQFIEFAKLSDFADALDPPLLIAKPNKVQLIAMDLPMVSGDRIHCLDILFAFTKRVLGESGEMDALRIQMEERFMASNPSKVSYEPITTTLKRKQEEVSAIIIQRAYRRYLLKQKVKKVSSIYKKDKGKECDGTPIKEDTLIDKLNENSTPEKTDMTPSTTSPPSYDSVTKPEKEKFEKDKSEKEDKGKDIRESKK
smiles,measurement,setting,value
CCN1CC2(COC)C3C(OC)C4C1C3(C1C[C@@]3(O)[C@H](OC(=O)C5CCCCC5)[C@@H]1[C@]4(OC(C)=O)[C@@H](O)[C@@H]3OC)[C@@H](OC)C[C@H]2O (stereo partly drawn) [4.8d],shift of voltage of half-activation (V0.5) towards the hypo-polarization,[1],more than 20 mV
same,effect on activation threshold,[1]; 20 μM,did not significantly shift the activation threshold
same,hypopolarized shift of potential of maximum current,[1]; 20 μM,10 mV
same,membrane potential at which maximum current is observed,[1]; 20 μM,0 mV
same,Activation V0.5 (mV),[1]; 21 μM,1.3 mV
same,Activation hg,[1]; 21 μM,15.4
same,current at −50 mV,"[1]; 50 μM, after about 1000 pulses, no current in control cells",substantial currents; also recorded: more pronounced effect in this respect than the natural product
same,Current after wash-off (%),[2]; after wash-off of 20 μM,79%
same,Current after wash-off (%),[2]; after wash-off of 21 μM (footnote c),79^c %
same,effect on threshold for inactivation,[3]; 20 μM,shifted the threshold for inactivation towards higher potentials
same,Steady-state inactivation V0.5 (mV),[3]; 21 μM,−53.1 mV
same,Steady-state inactivation k (slope factor at midpoint),[3]; 21 μM,8.1
same,slope factor k of steady-state inactivation,"[3]; concentration not given, unmodified ˜6",~8
same,% Remaining current after reaching steady-state binding,[4]; 5 μM,82%
same,peak current blocked at steady state,[4]; 20 μM,85%
same,depolarizing pulses required to reach steady-state block,[4]; 20 μM,around 600 pulses
same,Current measured at 20 μM (%),[4]; 21 μM (footnote c),15^c %
same,% Remaining current after reaching steady-state binding,[4]; 50 μM,10%
same,peak current blocked at steady state,[4]; 50 μM,90%
same,depolarizing pulses required to reach steady-state block,[4]; 50 μM,Approximately 1000 pulses
same,% Remaining current after reaching steady-state binding,[4]; 200 μM,6%
same,peak current blocked at steady state,[4]; 200 μM,94%
same,depolarizing pulses required to reach steady-state block,[4]; 200 μM,200 pulses
CCN1CC2(COC)C3C(OC)C4C1C3(C1C[C@@]3(O)[C@H](OC(=O)c5ccccc5N=[N+]=[N-])[C@@H]1[C@]4(OC(C)=O)[C@@H](O)[C@@H]3OC)[C@@H](OC)C[C@H]2O (stereo partly drawn) [4.8f],% Remaining current after reaching steady-state binding,[4]; 50 μM,22%
CCN1CC2(COC)C3[C@H](OC)C4C1C3(C1C[C@@]3(O)[C@H](OC(=O)c5cc6ccccc6oc5=O)C1[C@]4(OC(C)=O)[C@@H](O)[C@@H]3OC)[C@@H](OC)C[C@H]2O (stereo partly drawn) [4.8g],Activation V0.5 (mV),[1]; 75 μM,−36 mV
same,Activation hg,[1]; 75 μM,8.9
same,Current after wash-off (%),[2]; after wash-off of 20 μM,83%
same,Current after wash-off (%),[2]; after wash-off of 75 μM,31%
same,reversibility of binding upon wash-off,[2],did not restore substantial current
same,Steady-state inactivation V0.5 (mV),[3]; 75 μM,−75.6 mV
same,Steady-state inactivation k (slope factor at midpoint),[3]; 75 μM,11.6
same,steady-state inactivation V0.5,[3]; concentration not given,−76 mV
same,shift of steady-state inactivation V0.5 compared to the unmodified NaV channel,"[3]; toward hyperpolarized potentials, concentration not given",23 mV
same,concentration required to achieve the current levels observed with 20 μM aconitine,[4],75 µM
same,% Remaining current after reaching steady-state binding,[4]; 20 μM,79%
same,peak current blocked at steady state,[4]; 20 μM,21%
same,Current measured at 20 μM (%),[4]; 20 μM,79%
same,depolarizing pulses required to reach steady-state block,[4]; 20 μM,over 2500 pulses
same,% Remaining current after reaching steady-state binding,[4]; 75 μM,23%
same,peak current blocked at steady state,[4]; 75 μM,77%
same,Current measured at 75 μM (%),[4]; 75 μM,23%
same,depolarizing pulses required to reach steady-state block,[4]; 75 μM,over 3000 pulses
CCN1CC2(COC)C3C(OC)C4C1C3(C1C[C@@]3(O)[C@H](OC(=O)c5ccc6ccccc6c5)[C@@H]1[C@]4(OC(C)=O)[C@@H](O)[C@@H]3OC)[C@@H](OC)C[C@H]2O (stereo partly drawn) [4.8c],Activation V0.5 (mV),[1]; 5 μM,−23.1 mV
same,Activation hg,[1]; 5 μM,13.1
same,Current after wash-off (%),[2]; after wash-off of 20 μM,4%
same,Current after wash-off (%),[2]; after wash-off of 73 μM (footnote b),3^b %
same,reversibility of binding upon wash-off,[2],did not restore substantial current; also recorded: completely irreversible
same,% Remaining current after reaching steady-state binding,[4]; 5 μM,38%
same,% Remaining current after reaching steady-state binding,[4]; 20 μM,5%
same,peak current blocked at steady state,[4]; 20 μM,around 95%
same,Current measured at 20 μM (%),[4]; 20 μM,3%
same,depolarizing pulses required to reach steady-state block,[4]; 20 μM,800 pulses
same,peak current blocked at steady state,[4]; 73 μM,over 97%
same,Current measured at 75 μM (%),[4]; 73 μM (footnote b),3^b %
same,% Remaining current after reaching steady-state binding,"[4]; 73 μM (footnote c, 75 μM column)",3^c %
same,depolarizing pulses required to reach steady-state block,[4]; 73 μM,≤ 300 pulses
same,% Remaining current after reaching steady-state binding,[4]; 200 μM,3%
same,current observed at steady state,[4]; concentrations of 20 μM and above,≤ 5%
"NC1=N[C@H](O)[C@H]2[C@H]3O[C@]4(O)O[C@@H]([C@@H](O)[C@@]2(N1)[C@@H]4O)[C@]3(O)CO [TTX, tetrodotoxin]",TTX potency,[5],0.012 µM
same,TTX potency,[6],60 µM
